Measured values from ChEMBL document CHEMBL3507680, “University of Dundee, Gates Library screen for HepG2 cell viability”.

Assay: Human HepG2 cell viability assay in 384 well format
Format: toxicity, cell-based
Design: dose 125 nL, time 70.5 hour; cytotoxicity at 70.5 h: concentration not given beside the values
Conditions: HepG2 cells, read-out: Inhibition

COc1ccc(NC(=O)CN2CCCCC2C2OCCO2)cc1 (centres undefined)
cytotoxicity at 70.5 h: -4.96%

CCS(=O)(=O)N(C)C1CCN(C(=O)c2cc(C)cc(C)c2)CC1
cytotoxicity at 70.5 h: -14.2%

CNS(=O)(=O)c1cccc(C(C)NCc2cccc(C)c2C)c1 (centres undefined)
cytotoxicity at 70.5 h: -12.2%

Cc1ccc(C(CNCc2cccnc2)N2CCOCC2)s1 (centres undefined)
cytotoxicity at 70.5 h: -10.2%

Cc1cc(C)n(-c2cncc(N3CCC(C(=O)N(C)C)CC3)n2)n1
cytotoxicity at 70.5 h: 11.2%

c1ccc(C2CCCN(c3cncc(-n4cccn4)n3)CC2)cc1 (centres undefined)
cytotoxicity at 70.5 h: -9.13%

CN1CCN(C(=O)C2SCCc3sccc32)CC1 (centres undefined)
cytotoxicity at 70.5 h: -6.9%

COCc1nc2cc(NCc3cc[nH]n3)ccc2o1
cytotoxicity at 70.5 h: -2.44%

CNS(=O)(=O)c1cccc(C(C)NCc2ccc(F)c(F)c2)c1 (centres undefined)
cytotoxicity at 70.5 h: -6.64%

CC(=O)Nc1nc(CN(C)CC2CCCN2c2cccnn2)cs1 (centres undefined)
cytotoxicity at 70.5 h: -12.7%

FC(F)(F)C1CCCn2c(CNCc3cccs3)nnc21 (centres undefined)
cytotoxicity at 70.5 h: -7.88%

Cn1cccc1CNCc1nnc2n1CCCC2C(F)(F)F (centres undefined)
cytotoxicity at 70.5 h: -5.37%

CN(CC(=O)N1CCCC1c1noc(C2CC2)n1)S(C)(=O)=O (centres undefined)
cytotoxicity at 70.5 h: -12.3%

O=C(CCn1cccn1)NCC(c1cccs1)N1CCOCC1 (centres undefined)
cytotoxicity at 70.5 h: 25.6%

CCOc1ncccc1CNC(=O)N1CCCC1c1cccs1 (centres undefined)
cytotoxicity at 70.5 h: -11.7%

COc1cc(CNC(=O)N2CCCC2c2cc(C)no2)ccn1 (centres undefined)
cytotoxicity at 70.5 h: -15.1%

CNC(=O)NC(=O)C(C)N1CCC(c2c[nH]c3ccc(OC)cc23)CC1 (centres undefined)
cytotoxicity at 70.5 h: -2.98%

CCSCCC(=O)Nc1ncn(Cc2ccccc2)n1
cytotoxicity at 70.5 h: -14.4%

CC(SCC(=O)NC(N)=O)c1ccccc1F (centres undefined)
cytotoxicity at 70.5 h: -8.18%

CN(C)C(=O)Cn1cc(C#N)c(=O)c2cc(Br)ccc21
cytotoxicity at 70.5 h: 1.29%

CC(C)CNC(=O)c1cc(Br)c2c(c1)OCCO2
cytotoxicity at 70.5 h: -7.77%

CCc1nc2n(n1)CCCC2Nc1nc(C2CC2)ns1 (centres undefined)
cytotoxicity at 70.5 h: -8.97%

CCCS(=O)(=O)CC(=O)N1CCCC1c1noc(C2CC2)n1 (centres undefined)
cytotoxicity at 70.5 h: -17.8%

O=C(Cn1cccn1)NCC(c1cccs1)N1CCCC1 (centres undefined)
cytotoxicity at 70.5 h: -11.9%

CC(NC(=O)CCn1cccn1)c1cccs1 (centres undefined)
cytotoxicity at 70.5 h: -0.167%

Cc1ccc(N2CCCC(N(C)Cc3nc(C)c(C)o3)C2)nn1 (centres undefined)
cytotoxicity at 70.5 h: -11.5%

Cc1ccc(N2CCCC(N(C)Cc3noc(C4CC4)n3)C2)nn1 (centres undefined)
cytotoxicity at 70.5 h: -9.69%

CSC(C)(C)CNC(=O)NC1CCN(CC=C(C)C)CC1
cytotoxicity at 70.5 h: 31.2%

CSC(C)(C)CNC(=O)NC1CCN(CC2CC2)C1 (centres undefined)
cytotoxicity at 70.5 h: 15.5%

COc1ccc(Br)c(C(=O)NCC2CC2)c1
cytotoxicity at 70.5 h: 18.2%

O=C1c2ccccc2C(=O)N1CC(O)Cn1nc(-c2cccs2)oc1=O (centres undefined)
cytotoxicity at 70.5 h: 5.68%

O=c1oc(-c2cccs2)nn1CC(O)c1ccccc1F (centres undefined)
cytotoxicity at 70.5 h: -4.66%

CCCS(=O)(=O)N1CCC(NC(=O)c2ccc(C)s2)CC1
cytotoxicity at 70.5 h: -8.95%

CC(NC(=O)NCCCn1cccn1)c1ccccn1 (centres undefined)
cytotoxicity at 70.5 h: -5.57%

CCc1ccc(C(=O)Nc2cccc(CN3CCCC3C(N)=O)c2)cc1 (centres undefined)
cytotoxicity at 70.5 h: 0.802%

CC(NC(=O)NCCCn1cccn1)c1ccncc1 (centres undefined)
cytotoxicity at 70.5 h: -10.8%

O=C(CCN1CCCC1c1cccc2c1OCCO2)N1CCCCC1 (centres undefined)
cytotoxicity at 70.5 h: -6.86%

NC(=O)NC(=O)CCN1CCCC1c1cccc2c1OCCO2 (centres undefined)
cytotoxicity at 70.5 h: -11.6%

CCc1nc(CCNC(=O)Nc2cc(C(N)=O)ccc2OC)cs1
cytotoxicity at 70.5 h: -12.4%

CCNC(=O)CCN1CCCC1c1cccc2c1OCCO2 (centres undefined)
cytotoxicity at 70.5 h: -7.15%

Cc1cccc(NC(=O)[C@@H]2CCCN2Cc2nc3ccccc3o2)n1
cytotoxicity at 70.5 h: 4.7%

COc1ccc(-n2cnnc2SCC(=O)NC(C)C)cn1
cytotoxicity at 70.5 h: -3.19%

Cc1cc(S(=O)(=O)N2CCCc3cc(Cl)ccc32)sc1C(=O)O
cytotoxicity at 70.5 h: 2.62%

COCC(=O)NC1CCN(c2cccc(OC(F)(F)F)c2)C1=O (centres undefined)
cytotoxicity at 70.5 h: -7.95%

CCC(=O)NC1CCN(c2cccc(OC(F)(F)F)c2)C1=O (centres undefined)
cytotoxicity at 70.5 h: -2.63%

Cc1cccc(NC(=O)[C@@H]2CCCN2Cc2ccc(C#N)cc2F)n1
cytotoxicity at 70.5 h: -0.253%

CC(=O)N1CCC(C(=O)NC(C)c2cccc(OC(F)F)c2)CC1 (centres undefined)
cytotoxicity at 70.5 h: 1.57%

Cc1cc(C(=O)N2CCN(CC(O)Cn3cccn3)CC2)c(C)o1 (centres undefined)
cytotoxicity at 70.5 h: 6.38%

Cc1ccc(NC(=O)C2CCc3ccccc3N2)cc1 (centres undefined)
cytotoxicity at 70.5 h: 15.2%

CC(=O)NCCC(=O)NCC1(c2c(F)cccc2F)CCCC1
cytotoxicity at 70.5 h: -3.9%

COC(=O)c1ccc(/C=C/c2ncc(C(=O)O)s2)cc1
cytotoxicity at 70.5 h: 3.38%

COc1cc(/C=C/c2ncc(C(=O)O)s2)cc(OC)c1
cytotoxicity at 70.5 h: 14.7%

CCS(=O)(=O)CC(=O)NCC1(c2c(F)cccc2F)CCCC1
cytotoxicity at 70.5 h: 18%

CC(C)c1nc2n(n1)CC(NCC(=O)NCCC1=CCCCC1)CC2 (centres undefined)
cytotoxicity at 70.5 h: -0.816%

Cc1cc(=O)n(C)cc1NC(=O)NCc1cccc(F)c1
cytotoxicity at 70.5 h: -2.73%

CCC(CNC(=O)c1nc(=O)[nH][nH]1)Oc1cccc(F)c1 (centres undefined)
cytotoxicity at 70.5 h: 0.426%

CCn1c(CNC(=O)Nc2nc(C)c(C)o2)nc2ccccc21
cytotoxicity at 70.5 h: 14.3%

CCC(CNC(=O)c1nc(=O)[nH][nH]1)Oc1cccc(C(F)(F)F)c1 (centres undefined)
cytotoxicity at 70.5 h: -3.8%

Cc1cc(=O)n(C)cc1NC(=O)Cc1cccc(Cl)c1
cytotoxicity at 70.5 h: -0.253%

Cc1cc(=O)n(C)cc1NC(=O)Cc1cc(F)ccc1F
cytotoxicity at 70.5 h: 2.11%

Cn1cc(CNc2ccc(F)c(N3CCCS3(=O)=O)c2)cn1
cytotoxicity at 70.5 h: -1.61%

O=C(CCCC1CCCC1)NS(=O)(=O)CC1CC1
cytotoxicity at 70.5 h: -2.25%

Cc1nnc(C(C)N(C)Cc2c(C)nn(-c3ccccc3)c2C)o1 (centres undefined)
cytotoxicity at 70.5 h: -1.32%

CC(NCC1CCN(CCO)CC1)c1ccc(OC(F)(F)F)cc1 (centres undefined)
cytotoxicity at 70.5 h: -2.01%

O=C(c1cccc(Cl)c1Cl)N1CCN(CC(O)Cn2cccn2)CC1 (centres undefined)
cytotoxicity at 70.5 h: -2.95%

CN(Cc1ccccc1NCc1ncc[nH]1)C(=O)c1cccs1
cytotoxicity at 70.5 h: 14%

CN(CCN1CCOCC1)C(=O)C1(c2ccc(F)cc2F)CCC1
cytotoxicity at 70.5 h: -2.7%

CC(NCC1CCN(CCO)CC1)c1cccnc1 (centres undefined)
cytotoxicity at 70.5 h: 28.1%

Cc1cc(-n2cncn2)ccc1C(=O)N(CC(F)(F)F)C(C)C
cytotoxicity at 70.5 h: -7.81%

Cc1ccsc1CN(C)Cn1nccc1-c1cccnc1
cytotoxicity at 70.5 h: -2.36%

CC1(C)CCC(C(=O)N2CCCO2)c2ccccc21 (centres undefined)
cytotoxicity at 70.5 h: 9.21%

Cc1cc(-n2cncn2)ccc1C(=O)N(C)CC(F)(F)C(F)(F)F
cytotoxicity at 70.5 h: -5.19%

CC1(C)CCC(C(=O)O)c2ccccc21 (centres undefined)
cytotoxicity at 70.5 h: -8.46%

CN(Cc1ccc(Br)s1)Cn1nc(-c2ccccc2)oc1=O
cytotoxicity at 70.5 h: -9.53%

Cc1ncc(CN(C)Cn2nc(-c3ccccc3)oc2=O)s1
cytotoxicity at 70.5 h: -13.1%

CN(C(=O)CNC(=O)CC(C)(C)C)C1CCN(c2ccccn2)CC1
cytotoxicity at 70.5 h: -6.78%

Cc1ccsc1CN(C)c1nc2c(cnn2C(C)(C)C)c(=O)[nH]1
cytotoxicity at 70.5 h: -4.96%

Cc1nc(-c2ccccc2)ccc1C(=O)N1CCn2c(C)nnc2C1
cytotoxicity at 70.5 h: -11.8%

CN(C(=O)CNc1ccc(C#N)cc1)C1CCN(c2ccccn2)CC1
cytotoxicity at 70.5 h: -10%

Cn1nnc2cc(C(=O)NS(=O)(=O)c3cccc(C#N)c3)ccc21
cytotoxicity at 70.5 h: -5.98%

Cc1cc(C)c2c(c1)C(NC(=O)CSCC(N)=O)CCO2 (centres undefined)
cytotoxicity at 70.5 h: -9.85%

OC(CN(Cc1ccccc1)Cc1cscn1)c1ccco1 (centres undefined)
cytotoxicity at 70.5 h: -9.5%

CCc1noc(CC)c1CNC(=O)Nc1cccc([S+](C)[O-])c1 (centres undefined)
cytotoxicity at 70.5 h: -1.9%

CCc1noc(CC)c1CNC(=O)Nc1cccc(C(=O)N(C)C)c1
cytotoxicity at 70.5 h: -1.22%

Cc1noc(C)c1CN(C)Cn1nccc1-c1cccnc1
cytotoxicity at 70.5 h: 10.8%

O=C(Nc1ccc(F)c(-n2cccc2)c1)NC1(CCO)CCOCC1
cytotoxicity at 70.5 h: -10.8%

CCn1c(CN(C)C(=O)c2ccc(OC)nc2)nc2ccccc21
cytotoxicity at 70.5 h: -11.7%

CN(C)CC1CCN(Cc2nccn2CC(F)(F)F)CC1
cytotoxicity at 70.5 h: -0.976%

CCC(C)NC(=O)CS(=O)(=O)Cc1nc(-c2cccs2)no1 (centres undefined)
cytotoxicity at 70.5 h: -8.46%

Cc1nn(-c2ccccc2)nc1C(=O)NCC(c1ccco1)N(C)C (centres undefined)
cytotoxicity at 70.5 h: -15.6%

O=C(CCS(=O)(=O)C1CCCC1)NCCc1cccnc1
cytotoxicity at 70.5 h: -6.71%

O=C(CC1CCCO1)Nc1ccn(Cc2cccc3cccnc23)n1 (centres undefined)
cytotoxicity at 70.5 h: -6.79%

CCc1nnc2n1CCN(C(=O)c1cnn(C)c1C1CC1)C2
cytotoxicity at 70.5 h: 8.38%

O=C(COCC1CC1)Nc1ccn(Cc2cccc3cccnc23)n1
cytotoxicity at 70.5 h: -1.28%

CC(C)c1nnc2n1CCN(C(=O)c1cnc(C3CC3)s1)C2
cytotoxicity at 70.5 h: -7.9%

CCC(C)(C)NC(=O)Nc1nnc(-c2ccccn2)s1
cytotoxicity at 70.5 h: -10.1%

Cc1cnn(C2CCN(Cc3ccccc3)C2)c1N (centres undefined)
cytotoxicity at 70.5 h: 16%

Nc1ccnn1C1CCN(Cc2ccccc2)C1 (centres undefined)
cytotoxicity at 70.5 h: 2.28%

CNC(=O)N(Cc1c(F)cccc1F)C1CCCC1
cytotoxicity at 70.5 h: -3.72%

Cc1nc(C2CCCCC2)sc1C(=O)O
cytotoxicity at 70.5 h: 0.584%

Cc1occc1CNC(=O)Nc1ccc2nc(N3CCOCC3)oc2c1
cytotoxicity at 70.5 h: -9.42%

CN(CCCc1n[nH]c(N)c1C#N)C(=O)NC1CC1
cytotoxicity at 70.5 h: -2.78%

O=C1OCCC1N1CCN(c2ccc(O)cc2)CC1 (centres undefined)
cytotoxicity at 70.5 h: 10.3%

Cc1ccc(C(CNC(=O)Cc2nc3ncccn3n2)N(C)C)cc1 (centres undefined)
cytotoxicity at 70.5 h: -10.7%

NC(=O)Nc1cc(Br)cnc1OCC(F)(F)F
cytotoxicity at 70.5 h: -7.02%

CC(=O)Nc1cc(Br)cnc1OCC(F)(F)F
cytotoxicity at 70.5 h: 20.4%

NC(=O)c1cccc(CCNCc2cccs2)c1
cytotoxicity at 70.5 h: -3.84%

COCC(=O)Nc1cc(Br)cnc1OCC(F)(F)F
cytotoxicity at 70.5 h: -11.8%

CN1CCN(C2CCN(c3cnc4ccccc4n3)CC2)C1=O
cytotoxicity at 70.5 h: -12.4%

O=C1C(N2CCN(c3ccc(O)cc3)CC2)CCN1C1CCOCC1 (centres undefined)
cytotoxicity at 70.5 h: 24.5%

O=C(c1ncncc1Cl)N1CCN(c2ccc(Cl)cc2)CC1
cytotoxicity at 70.5 h: -8.8%

O=S(=O)(CCC1CCCO1)NCc1ncc(-c2ccccc2)o1 (centres undefined)
cytotoxicity at 70.5 h: 5%

Cn1cc(C(=O)NC2CCCC2)c(-c2cccnc2)n1
cytotoxicity at 70.5 h: -10.4%

NC(=O)c1cccc(CCNCc2cnc(-c3cccs3)s2)c1
cytotoxicity at 70.5 h: -12.1%

Cc1cc(C)n(-c2ccc(C(C)NS(N)(=O)=O)cc2)n1 (centres undefined)
cytotoxicity at 70.5 h: -11.9%

Cn1c(C(N)=O)ccc1-c1ccccc1
cytotoxicity at 70.5 h: 6.66%

Cc1cc(C)n(-c2ccc(C(C)NS(=O)(=O)CCCS(C)(=O)=O)cc2)n1 (centres undefined)
cytotoxicity at 70.5 h: 19.6%

O=C1C(N2CCN(c3ccccc3Cl)CC2)CCN1C1CCOCC1 (centres undefined)
cytotoxicity at 70.5 h: -5.64%

CC/C=C(/C)C(=O)NCc1ccc(OC)nc1
cytotoxicity at 70.5 h: -13.3%
